{
  "source": "paper PMC8291137",
  "about": "(ACS Medicinal Chemistry Letters, 2021)",
  "key": {"[1]": {"experiment": "Shake-flask aqueous solubility in Britton-Robinson buffer"}},
  "data": [
    {"smiles": "Cn1cc(-c2cc(-c3cc(Cl)cc(OCc4scnc4C(F)(F)F)c3)c(=O)n(-c3cccnc3)c2)c(=O)[nH]c1=O", "note": "[Compound 21]", "values": [
      {"measurement": "aqueous solubility (in words)", "setting": "[1]", "result": "good aqueous solubility"},
      {"measurement": "cytotoxicity (in words)", "setting": "Vero E6 cells", "result": "no cytotoxicity"}
    ]}
  ]
}
